In brackets after ≈: the same amount, converted by molar mass.
What was measured:
M. tuberculosis H37Rv [1] = assay: Minimum lethal concentration (MLC); type: cell-based; settings: Mycobacterium tuberculosis, NA = no activity, read-out: MLC against M. tuberculosis H37Rv
S. aureus [2] = assay: MBC by subculturing; type: cell-based; settings: Staphylococcus aureus
Description: (§1) The minimum bactericidal concentration (MBC) and minimum fungicidal concentration (MFC) of the synthesized benzimidazole derivatives was determined by subculturing 100 µl of culture from each tube that remained clear in MIC determination onto sterilized petri-plates containing fresh agar medium. The petri-plates were incubated and analyzed for microbial growth visually.

S. typhi [3] = assay: MBC by subculturing; type: cell-based; settings: Salmonella enterica, read-out: MBC S. typhi
Description: as §1

E. coli [4] = assay: MBC by subculturing; type: cell-based; settings: Escherichia coli
Description: as §1

B. subtilis [5] = assay: MBC by subculturing; type: cell-based; settings: Bacillus subtilis, read-out: MBC B. subtilis
Description: as §1

B. cereus [6] = assay: MBC by subculturing; type: cell-based; settings: Bacillus cereus, read-out: MBC B. cereus
Description: as §1

C. albicans [7] = assay: MFC by subculturing; type: cell-based; settings: Candida albicans, read-out: MFC C. albicans
Description: as §1

A. niger [8] = assay: MFC by subculturing; type: cell-based; settings: Aspergillus niger, read-out: MFC A. niger
Description: as §1

S. typhi [9] = assay: Tube dilution MIC; type: cell-based; settings: Salmonella enterica, 24 h, read-out: MIC S. typhi
[10] = tested on: HCT116 (human colorectal) cell line; assay: Sulforhodamine-B (SRB) cytotoxicity assay; type: cell-based; settings: HCT-116, read-out: IC50 HCT116
S. aureus [11] = assay: Tube dilution MIC; settings: Staphylococcus aureus, 24 h, read-out: MIC S. aureus
E. coli [12] = assay: Tube dilution MIC; settings: Escherichia coli, 24 h, read-out: MIC E. coli
[13] = target: mycobacterial isocitrate lyase (Mycobacterium tuberculosis, UniProt P9WKK7); assay: Mycobacterial isocitrate lyase (ICL) assay; type: biochemical, M. tuberculosis H37Rv; settings: read-out: Percent inhibition of enzyme, M. ICL activity
mycobacterial isocitrate lyase, sequence (P9WKK7 whole entry): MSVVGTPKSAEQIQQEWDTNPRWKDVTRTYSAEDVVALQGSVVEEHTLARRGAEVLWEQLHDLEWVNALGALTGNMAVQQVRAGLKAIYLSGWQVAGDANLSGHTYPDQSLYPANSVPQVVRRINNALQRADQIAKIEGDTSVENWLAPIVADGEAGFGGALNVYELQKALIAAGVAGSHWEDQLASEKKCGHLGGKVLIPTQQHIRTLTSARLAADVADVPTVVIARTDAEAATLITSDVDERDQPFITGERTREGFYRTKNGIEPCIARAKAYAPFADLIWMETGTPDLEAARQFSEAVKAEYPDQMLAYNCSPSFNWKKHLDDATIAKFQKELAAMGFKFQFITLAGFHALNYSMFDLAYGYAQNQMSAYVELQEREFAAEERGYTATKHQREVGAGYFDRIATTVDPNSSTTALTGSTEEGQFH
Description: The compounds found potent in in vivo evaluation were assayed for inhibition of mycobacterial enzymes viz., isocitrate lyase, pantothenate synthetase and chorismate mutase.
Isocitrate lyase activity was assayed according to the protocol reported by Dixon and Kornberg (glyoxylate phenyl hydrazone formation) at 10 μM of the compounds.

C. albicans [14] = assay: microbe, parasite or virus in culture; settings: Candida albicans, 48 h, read-out: MIC C. albicans
[15] = In vivo LD50, ED50 and toxic dose in mice models; settings: mouse, dose that killed 50% of the mice population within the group
Description: The LD50 and ED50 were determined for the active compounds in mice models infected with Mycobacterium H37Rv (Table 4). […] Thus, ED50 of 1.34 mg/kg was considered safe for each of the compounds. It was observed that this dose was effective and safe for mice in different groups before infecting the mice models with specific TB bacteria as no mortality of any single animal was recorded.
The LD50 (lethal dose) and ED50 (optimum/effective dose) doses were determined for the active compounds in mice models infected with Mycobacterium H37Rv via ethical permission no., NCFT/EC/16/2313 assigned to Collaborative Research Group (CRG), NCFT, New Delhi, India.

M. tuberculosis H37Rv [16] = assay: MIC by microplate alamar blue assay; type: cell-based; settings: Mycobacterium tuberculosis, NA = no activity, read-out: MIC against M. tuberculosis H37Rv
[17] = tested on: MCF7 (human breast cancer) cell line; assay: Sulforhodamine-B (SRB) cytotoxicity assay; type: cell-based; settings: MCF7, read-out: IC50 MCF7
B. cereus [18] = assay: Tube dilution MIC; settings: Bacillus cereus, 24 h, read-out: MIC B. cereus
[19] = tested on: M. tuberculosis H37Rv (NCFT/TB/537); assay: Well diffusion susceptibility test (zone of inhibition); type: cell-based; settings: Mycobacterium tuberculosis, 672 h, read-out: Diameter of zone of inhibition against H37Rv (NCFT/TB/537), wells of 8 mm, 50 µg/ml test compound, 25 µg/ml standard drug, 4 weeks, NA = no activity
A. niger [20] = assay: microbe, parasite or virus in culture; settings: Aspergillus niger, 168 h, read-out: MIC A. niger
B. subtilis [21] = assay: Tube dilution MIC; settings: Bacillus subtilis, 24 h, read-out: MIC B. subtilis

SMILES	MBC (M. tuberculosis H37Rv [1])	MBC (S. aureus [2])	MBC (S. typhi [3])	MBC (E. coli [4])	MBC (B. subtilis [5])	MBC (B. cereus [6])	MFC (C. albicans [7])	MFC (A. niger [8])	MIC (S. typhi [9])	IC50 [10]	MIC (S. aureus [11])	MIC (E. coli [12])	inhibition at 10 µM [13]	MIC (C. albicans [14])	LD50 [15]	MIC (M. tuberculosis H37Rv [16])	IC50 [17]	MIC (B. cereus [18])	zone of inhibition at 50 µg/mL [19]	MIC (A. niger [20])	also measured
Cc1ccc(NC(=O)CSc2nc3ccccc3n2C(=O)c2ccccc2)cc1 [Compound 12, 2-(1-Benzoyl-1H-benzo[d]imidazol-2-ylthio)-N-p-tolylacetamide]	25 µg/mL (≈ 62.3 µM)	> 50 µg/mL	50 µg/mL (≈ 125 µM)	50 µg/mL (≈ 125 µM)	> 50 µg/mL	> 50 µg/mL	25 µg/mL (≈ 62.3 µM)	> 50 µg/mL	31 µM (≈ 12.4 µg/mL)	39.8 µM	31 µM (≈ 12.4 µg/mL)	31 µM (≈ 12.4 µg/mL)	43.5%	16 µM (≈ 6.42 µg/mL)	1.85 mg/kg	12.5 µg/mL (≈ 31.1 µM)	124 µM	31 µM (≈ 12.4 µg/mL)	> 20 mm	31 µM (≈ 12.4 µg/mL)	MIC (B. subtilis [21]): 31 µM (≈ 12.4 µg/mL)
Cc1cccc(C)c1NC(=O)CSc1nc2ccccc2n1C(=O)c1ccccc1 [Compound 13, 2-(1-Benzoyl-1H-benzo[d]imidazol-2-ylthio)-N-(2,6-dimethylphenyl)acetamide]	25 µg/mL (≈ 60.2 µM)	50 µg/mL (≈ 120 µM)	> 50 µg/mL	50 µg/mL (≈ 120 µM)	> 50 µg/mL	> 50 µg/mL	25 µg/mL (≈ 60.2 µM)	> 50 µg/mL	30 µM (≈ 12.5 µg/mL)	96.3 µM	30 µM (≈ 12.5 µg/mL)	30 µM (≈ 12.5 µg/mL)	56.5%	15 µM (≈ 6.23 µg/mL)	2.14 mg/kg	12.5 µg/mL (≈ 30.1 µM)	135 µM	30 µM (≈ 12.5 µg/mL)	> 20 mm	30 µM (≈ 12.5 µg/mL)	MIC (B. subtilis [21]): 30 µM (≈ 12.5 µg/mL)
O=C(CSc1nc2ccccc2n1C(=O)c1ccccc1)Nc1ccc(Cl)cc1 [Compound 15, 2-(1-Benzoyl-1H-benzo[d]imidazol-2-ylthio)-N-(4-chlorophenyl)acetamide]	25 µg/mL (≈ 59.3 µM)	50 µg/mL (≈ 119 µM)	> 50 µg/mL	50 µg/mL (≈ 119 µM)	> 50 µg/mL	> 50 µg/mL	> 50 µg/mL	> 50 µg/mL	59 µM (≈ 24.9 µg/mL)	59.4 µM	30 µM (≈ 12.7 µg/mL)	30 µM (≈ 12.7 µg/mL)	61.6%	30 µM (≈ 12.7 µg/mL)	2.67 mg/kg	12.5 µg/mL (≈ 29.6 µM)	95 µM	30 µM (≈ 12.7 µg/mL)	> 20 mm	30 µM (≈ 12.7 µg/mL)	MIC (B. subtilis [21]): 30 µM (≈ 12.7 µg/mL)

Reference: publication PMC5971037, “Synthesis and evaluation of antimicrobial, antitubercular and anticancer activities of 2-(1-benzoyl-1H-benzo[d]imidazol-2-ylthio)-N-substituted acetamides” (Chemistry Central Journal, 2018)
